Test results taken from patent US8252775B2, “Method of treating multiple sclerosis with phosphocholine containing lipids” (priority 2005, dated 2012).
Several values for one entry are separate records, joined by “and”; a condition that tells them apart may be missing. Identical values can stand only once. Entries after “also recorded” stand apart in the source; their conditions may differ.

Columns and labels:
EAE [1] = experiment: Prevention of EAE by co-delivery of lipid with PLP139-151/CFA; format: in vivo; conditions: SJL/J mice; 6 μg lipid with 100 μg PLP139-151 in CFA s.c. day 0, 6 μg i.p. days 4 and 7; vs vehicle
EAE [2] = experiment: Treatment of established EAE with intravenous lipid; format: in vivo, mice; conditions: 100 μg lipid i.v. at onset of paralysis and days 3, 6, 12, 18; five injections; vs vehicle
[3] = system: CD69 expression on CD4+ T cells; experiment: Flow cytometry of CD69 on restimulated lymph node cells from lipid-treated EAE mice; format: in vivo; conditions: for expression of early activation marker CD69 on CD4+ T cells: cells from treated EAE mice restimulated with PLP139-151, vs vehicle; for CD4+CD69+ cells / CD4+CD69− cells: lymph node cells of treated EAE mice, 4 days culture with 10 μg/ml PLP139-151; for CD4+CD69+ cells: vehicle 14.2%; for CD4+CD69− cells: vehicle 39.6%
Experimental: (§1) FIG. 5a-5b. PGPC treatment lowers IFNgamma secretion and early activation marker expression in response to the encephalitogenic antigen. (a) CD69 expression on CD4^+ and CD8^+PI^− lymphocytes (live cells) after 4 days in culture with 10 μg/ml PLP139-151. The ratio of CD69^+CD4^+:CD69^−CD4^+ is 14.2%:39.6% for lymph node cells from vehicle-treated mice, 9.6%:43.8% for cells from sphingomyelin-treated mice, and 7.96%:55.2% for cells from PGPC-treated mice. […] (b) Proliferation and cytokine assays of lymph node cells and splenocytes isolated from vehicle, PGPC, and sphingomyelin-treated mice in FIG. 4c.
(§2) Mice were sacrificed 48 days after disease induction and their spleens and lymph nodes (LN) harvested for analyses of expression of activation markers on subsets of T cells, measurements of secreted cytokines, and levels of T cell proliferation. Isolated cells were restimulated with the encephalitogenic antigen PLP139-151 and analyzed by flow cytometry. Dead cells (identified based on staining with propidium iodide) were eliminated from the analyses, and cells double stained with CD4-FITC or CD8-FITC and CD69-PE are presented (FIG. 5a). […] Specifically, the cells isolated from vehicle treated mice were 39.6% CD4^+CD69^− and 14.2% CD4^+CD69^+, whereas cells from PGPC treated mice were 55.2% CD4^+CD69^− and 7.96% CD4^+CD69^+.
Flow cytometric analysis. Cells were stained and run on a FACScan flow cytometer (BD Biosciences) using CellQuest software (BD Immunocytometry Systems). Results were analyzed using FlowJo software version 6.3.2 (Tree Star, Inc.). The following antibody conjugates were used: PE anti-mouse CD3, clone 145-2C11; FITC anti-mouse CD4, clone GK1.5; PE anti-mouse CD4, clone GK1.5; FITC anti-mouse CD8, clone 53-6.7; PE-anti-mouse CD69, clone H1.2F3. All anti-CD3, CD4, and CD8 antibodies were purchased from BD Pharmingen. Anti-mouse CD69 was purchased from eBioscience. 7AAD staining was performed using the reagents from the Annexin V-PE Apoptosis Detection Kit I (BD Pharmingen) using the manufacturer's recommended staining protocol. CFSE staining was performed on freshly isolated lymph node cells by mixing equal volumes of 37° C. pre-warmed cells in PBS containing 5% FBS with 10 μM solution of pre-warmed CFSE probe (CellTrace™ CFSE Cell Proliferation Kit) as described in the manufacturer's alternate method for labelling cells in solution (Molecular Probes).

IFNγ [4] = experiment: IFNγ ELISA on PLP139-151-stimulated cells from lipid-treated EAE mice; format: in vivo; conditions: vs controls; for IFNγ secretion by lymph node cells: LN cells from treated EAE mice stimulated with PLP139-151
Experimental: as §1, §2
(§3) Proliferation and cytokine assays. We sacrificed mice and harvested their lymph node cells and splenocytes. 2.5×10^6 cells/ml were stimulated in vitro with 10 μg/ml PLP139-151, 1 μg/ml ConA, or media alone. Cells were cultured in RPMI 1640 with 10% fetal bovine serum, supplemented with L-glutamine (2 mM), sodium pyruvate (1 mM), non-essential amino acids (0.1 mM), penicillin (100 U/ml), streptomycin (0.1 mg/ml), and 2-mercaptoethanol (50 μM). To assess proliferation, 1 μCi of ^3H-thymidine was added to each well at 48 hours for the final 18 hours of culture, and radioactivity incorporation quantified using a Betaplate scintillation counter. Cytokine assays were performed on culture supernatants after 66 hours of culture using the BD OptEIA™ Mouse IFNγ ELISA kit (BD Biosciences). Results are shown as mean of triplicates+s.e.m.

splenocytes = experiment: 3H-thymidine proliferation of PLP139-151-stimulated splenocytes from lipid-treated EAE mice; format: in vivo; conditions: PLP139-151-stimulated splenocytes from treated EAE mice
Experimental: as §1
Mice were sacrificed 48 days after disease induction and their spleens and lymph nodes (LN) harvested for analyses of expression of activation markers on subsets of T cells, measurements of secreted cytokines, and levels of T cell proliferation. Isolated cells were restimulated with the encephalitogenic antigen PLP139-151 and analyzed by flow cytometry. Dead cells (identified based on staining with propidium iodide) were eliminated from the analyses, and cells double stained with CD4-FITC or CD8-FITC and CD69-PE are presented (FIG. 5a). […]
Proliferation and cytokine assays. […] To assess proliferation, 1 μCi of ^3H-thymidine was added to each well at 48 hours for the final 18 hours of culture, and radioactivity incorporation quantified using a Betaplate scintillation counter. […]

TCR Tg LN cells [5] = experiment: CFSE T cell proliferation assay, MBPAc1-11-stimulated TCR Tg LN cells; format: cell-based, mice; conditions: 75 μM lipid, 5 μg/ml MBPAc1-11, 48 hours, CD3+ and CD4+ cells; vs media alone
TCR Tg LN cells [6] = experiment: 7AAD uptake (cell death) in MBPAc1-11-stimulated TCR Tg cells; format: cell-based; conditions: 75 μM lipid, 5 μg/ml MBPAc1-11, 48 hours
Experimental: (§4) FIG. 6a-6d. PGPC slows the rate of T cell proliferation. […] The 0 hour time point is shown as the high peak with the black dashed line. (c) 7AAD stained cells from TCR Tg mice^33, 48 hours after incubation with 5 μg/ml MBPAc1-11 with or without lipid. […] (d) LN cells stimulated with 1 μg/ml MBPAC1-11, 30 μg/ml PGPC, with or without 50 U/ml IL-2 are depicted.
(§5) To determine if the PGPC-mediated reduction in the proliferation rate of MBPAC1-11 stimulated T cells was due to cell death, we examined 7AAD uptake to identify dead cells at the 48 hour time point (FIG. 6c). […] This effect could be reversed by the addition of 50 U/ml IL-2 (p=0.024, Student's t test) (FIG. 6d), consistent with IL-2 mediated rescue of the T cells from an anergic state.
Flow cytometric analysis. Cells were stained and run on a FACScan flow cytometer (BD Biosciences) using CellQuest software (BD Immunocytometry Systems). Results were analyzed using FlowJo software version 6.3.2 (Tree Star, Inc.). The following antibody conjugates were used: PE anti-mouse CD3, clone 145-2C11; FITC anti-mouse CD4, clone GK1.5; PE anti-mouse CD4, clone GK1.5; FITC anti-mouse CD8, clone 53-6.7; PE-anti-mouse CD69, clone H1.2F3. All anti-CD3, CD4, and CD8 antibodies were purchased from BD Pharmingen. Anti-mouse CD69 was purchased from eBioscience. […]

[7] = system: MBPAc1-11-specific T cells; experiment: 3H-thymidine proliferation of MBPAc1-11-stimulated LN cells with lipid in vitro; format: cell-based, mice
Experimental: as §4, §5
as §3, with “Cytokine assays were performed on culture supernatants after 66 hours of culture using the BD OptEIA™ Mouse IFNγ ELISA kit (BD Biosciences). Results are shown as mean of triplicates+s.e.m.” left out

EAE [8] = experiment: Co-immunization with sulfatide plus PLP139-151, EAE disease course; format: in vivo; conditions: SJL mice; sulfatide 6 μg/mouse with PLP139-151 in CFA day 0, i.p. d4 and d7; vs vehicle
Experimental: (§6) FIG. 9. […] (a) Co-immunization of SJL mice with sulfatide (6 μg/mouse) and PLP139-151 (100 μg/mouse) emulsified in CFA (▪ sulfatide n=10, ▪ vehicle control n=10). An additional immunization of sulfatide (6 μg/mouse) or vehicle was given i.p. on d4 and d7 post-immunization. Each point represents the mean+s.e.m. (*p<0.05; Student's t test). […] The heatmap and dendrograms represent the SAM and hierarchical cluster analysis of lipid array results. (c) Modulation of EAE disease course after i.v. injection of O4 anti-sulfatide antibody versus IgM isotype control (▪ O4 n=5, ▪ IgM control n=5). Antibody was given on days 14, 17, and 19 post-immunization.
(§7) Further, the exacerbation of mouse EAE was associated with increased lymphocyte production of pro-inflammatory cytokines. Thus, characterization of the effects of candidate lipids in the mouse EAE model for MS (EAE), both with regard to their effects on disease severity as well as the production of pro-inflammatory cytokines by autoreactive lymphocytes can be used to identify lipids likely to exacerbated MS.
EAE induction and lipid co-immunization. […] Clinical disease was monitored daily using the following scoring system: 0, no disease; 1, limp tail; 2, hindlimb weakness; 3, hindlimb paralysis; 4, hindlimb and forelimb paralysis; 5, death. […]

anti-lipid antibodies = experiment: Lipid array analysis of serum from mice co-immunized with PLP139-151 plus sulfatide; format: in vivo; conditions: SJL mice co-immunized with PLP139-151 plus sulfatide
Experimental: as §6
Probing lipid arrays. Arrays were blocked overnight in 4° C. with 1% fatty acid free bovine serum albumin (BSA; Sigma) in phosphate buffered saline (PBS; Gibco BRL). Arrays were then probed with 1/10 dilutions of CSF, or 1/200 dilutions of sera for 2 hours at 4° C. After washing with blocking solution, a secondary antibody (anti-human IgG+IgM, Jackson Immunoresearch; anti-human IgG, Jackson Immunoresearch; anti-rabbit IgG, Amersham; or anti-mouse IgG, Amersham) conjugated to horseradish peroxidase (HRP) was added in blocking solution, and bound secondary antibodies visualized using chemiluminescence (ECL Plus, Amersham) and autoradiography. […]

TNFα = TNFα production by PLP139-151-specific T cells from sulfatide co-immunized mice; format: in vivo; conditions: T cells from mice immunized with PLP139-151+sulfatide
IFNγ [9] = experiment: IFNγ production by PLP139-151-specific T cells from sulfatide co-immunized mice; format: in vivo; conditions: T cells from mice immunized with PLP139-151+sulfatide
Experimental: as §6, §7
Proliferation and cytokine assays. We sacrificed mice and harvested their lymph node cells and splenocytes. […] To assess proliferation, 1 μCi of ^3H-thymidine was added to each well at 48 hours for the final 18 hours of culture, and radioactivity incorporation quantified using a Betaplate scintillation counter. […]

IL-4 = IL-4 production by PLP139-151-specific T cells from sulfatide co-immunized mice; format: in vivo; conditions: T cells from mice immunized with PLP139-151+sulfatide
Experimental: as §6, §7

IL-12 = IL-12 production by lymphocytes from sulfatide-treated mice; format: in vivo; conditions: lymphocytes from sulfatide-treated mice (sulfatide+PLP139-151)
Experimental: as §6

| Molecule | severity of EAE (prevention) (EAE [1]) | severity of paralysis in established EAE (EAE [2]) | expression of early activation marker CD69 on CD4+ T cells [3] | CD4+CD69+ cells [3] | CD4+CD69− cells [3] | IFNγ secretion by lymph node cells (IFNγ [4]) | IFNγ secretion by lymph node cells (IFNγ [4]; listed as PCPG) | IFNγ secretion by splenocytes (IFNγ [4]; splenocytes from treated EAE mice stimulated with PLP139-151) | 3H-thymidine incorporation (proliferation) of splenocytes (splenocytes) | T cell proliferation by CFSE staining (TCR Tg LN cells [5]) | cell death by 7AAD uptake (TCR Tg LN cells [6]) | effect of IL-2 on PGPC-mediated reduction of proliferation ([7]; 1 μg/ml MBPAc1-11, 30 μg/ml PGPC plus 50 U/ml IL-2) | MBPAc1-11-specific T cell proliferation (3H-thymidine incorporation) ([7]; LN cells, 1 μg/ml MBPAc1-11, 30 μg/ml PGPC) | EAE disease course after co-immunization (EAE [8]) | anti-lipid antibody reactivities in serum (anti-lipid antibodies) | TNFα production in response to PLP139-151 (TNFα) | IFNγ production in response to PLP139-151 (IFNγ [9]) | IL-4 production in response to PLP139-151 (IL-4) | IL-12 production (IL-12) |
| --- | --- | --- | --- | --- | --- | --- | --- | --- | --- | --- | --- | --- | --- | --- | --- | --- | --- | --- | --- |
| CCCCCCCCCCCCCCCC(=O)OC[C@H](COP(=O)([O-])OCC[N+](C)(C)C)OC(=O)CCCC(=O)O [PGPC, 1-palmitoyl-2-glutaroyl-sn-glycero-3-phosphocholine] | statistically reduced the severity of EAE; also recorded: ameliorates EAE | reduced the severity of paralysis; also recorded: treats ongoing disease | marked reduction in the expression of the early activation marker CD69 | 7.96% | 55.2% | secreted less IFNgamma; also recorded: secreted lower levels of IFNγ | decreased IFNγ levels | secreted less IFNgamma; also recorded: secreted lower levels of IFNγ | reduced; also recorded: slightly lower proliferation | slowed T cell proliferation; also recorded: reduces T cell proliferation rates; also recorded: reduced cell divisions | not due to cell death; also recorded: not inducing cell death | IL-2 reversed this effect | statistically significant reductions in MBPAc1-11-specific T cell proliferation; also recorded: reduced cell proliferation | – | – | – | – | – | – |
| sphingomyelin | statistically reduced the severity of EAE; also recorded: ameliorates EAE | only PGPC treats ongoing disease | intermediate level of CD69 expression | 9.61% and 9.6% | 43.8% | decreased IFNγ levels | – | – | – | mirrored that of the control; also recorded: line parallels gray shaded area | – | – | – | – | – | – | – | – | – |
| sulfatide | – | – | – | – | – | – | – | – | – | – | – | – | – | exacerbated murine MS; also recorded: more severe EAE disease course | increased anti-sulfatide and other anti-lipid antibody reactivities; also recorded: increased anti-lipid antibodies | increased amounts | increased amounts; also recorded: increased levels | less and lower levels | increased levels |
